Laboratory results reported in the RepoRT retention time repository.

Assay: HILIC, Waters Atlantis Premier BEH Z-HILIC, 100 × 2.1 mm, 1.7 µm, 40 °C, 0.15 mL/min, estimated dead time 1.5 min; A: water + 20 mM ammonium carbonate + 5 µM medronic acid; B: 10% water + 90% acetonitrile + 2 mM ammonium carbonate + 0.5 µM medronic acid; gradient (min/%B) 0/90 18/55 18.1/20 21.5/20 22/90 23.5/90 25.5/90
Conditions: stereoisomer not certain

Compound | LC retention time [min]
NC(CCC(=O)O)C(=O)O (configuration not stated) [Glutamic acid] | 9.23
Nc1nc2c(ncn2C2OC(COP(=O)(O)OP(=O)(O)OP(=O)(O)O)C(O)C2O)c(=O)[nH]1 (configuration not stated) [GTP] | 15.3
O=P(O)(O)OCC1OC(O)(COP(=O)(O)O)C(O)C1O (configuration not stated) [Fructose-1,6-bisphosphate] | 14.8
OCC1OC(O)C(O)C(O)C1O (configuration not stated) [Hexose] | 7.41
O=C(O)C(CO)OP(=O)(O)O (configuration not stated) [Phosphoglyceric acid A] | 12.7
O=C1CC(C(=O)O)NC(=O)N1 (configuration not stated) [dihydroorotic acid] | 3.92
C[N+](C)(C)CC(O)CC(=O)[O-] (configuration not stated) [Carnitine] | 9.89
O=C(O)CC(O)(CC(=O)O)C(=O)O [Citric acid] | 12.8
Cc1cc2nc3c(=O)[nH]c(=O)nc-3n(CC(O)C(O)C(O)COP(=O)(O)OP(=O)(O)OCC3OC(n4cnc5c(N)ncnc54)C(O)C3O)c2cc1C (configuration not stated) [FAD] | 7.03
NC(=O)CCC(N)C(=O)O (configuration not stated) [Glutamine] | 10.3
CC(=O)NC1C(OP(=O)(O)OP(=O)(O)OCC2OC(n3ccc(=O)[nH]c3=O)C(O)C2O)OC(CO)C(O)C1O (configuration not stated) [UDP-GlcNAc] | 9.52
Nc1ncnc2c1ncn2C1OC(CO)C(O)C1O (configuration not stated) [Adenosine] | 3.18
CC(O)C(=O)O (configuration not stated) [Lactic Acid] | 3.15
CCC(C)C(N)C(=O)O (configuration not stated) [Isoleucine] | 6.5
CC(C)(COP(=O)(O)OP(=O)(O)OCC1OC(n2cnc3c(N)ncnc32)C(O)C1OP(=O)(O)O)C(O)C(=O)NCCC(=O)NCCS (configuration not stated) [CoenzymeA] | 11.8
O=C(O)CC(C(=O)O)C(O)C(=O)O (configuration not stated) [Isocitric acid] | 12.8
O=P(O)(O)OCC1OC(O)C(O)C(O)C1O (configuration not stated) [Glucose-6-phosphate] | 11.7
NC(=O)C1=CN(C2OC(COP(=O)(O)OP(=O)(O)OCC3OC(n4cnc5c(N)ncnc54)C(O)C3O)C(O)C2O)C=CC1 (configuration not stated) [NADH] | 8.31
O=C(CO)COP(=O)(O)O [Triose phosphate] | 9.78

Compound | LC retention time [min]
NC(=O)C1=CN(C2OC(COP(=O)(O)OP(=O)(O)OCC3OC(n4cnc5c(N)ncnc54)C(OP(=O)(O)O)C3O)C(O)C2O)C=CC1 (configuration not stated) [NADPH] | 13.3
O=C(O)CCC(=O)O [Succinic Acid] | 9.23
O=C(CO)C(O)C(O)C(O)COP(=O)(O)O (configuration not stated) [Fructose 6-phosphate] | 10.8
Nc1ncnc2c1ncn2C1OC(COP(=O)(O)O)C(O)C1O (configuration not stated) [AMP] | 9.07
CC(=O)SCCNC(=O)CCNC(=O)C(O)C(C)(C)COP(=O)(O)OP(=O)(O)OCC1OC(n2cnc3c(N)ncnc32)C(O)C1OP(=O)(O)O (configuration not stated) [Acetyl-CoA] | 10.1
Nc1ncnc2c1ncn2C1OC(COP(=O)(O)OP(=O)(O)O)C(O)C1O (configuration not stated) [ADP] | 11.1
O=C(O)CCC(O)C(=O)O (configuration not stated) [2-hydroxy glutaric acid] | 9.22
NCCCCC(N)C(=O)O (configuration not stated) [Lysine] | 18.6
O=C(O)CCCCC1SCC2NC(=O)NC21 (configuration not stated) [Biotin] | 4.58
C=C(OP(=O)(O)O)C(=O)O [PEP] | 12.9
O=C(O)CCC(=O)C(=O)O [2-Oxoglutaric acid] | 8.68
CCC(=O)OC(CC(=O)[O-])C[N+](C)(C)C (configuration not stated) [carnitine-C3] | 6.42
Nc1ncnc2c1ncn2C1OC(COP(=O)(O)OP(=O)(O)OP(=O)(O)O)C(O)C1O (configuration not stated) [ATP] | 12.9
NC(=O)c1ccc[n+](C2OC(COP(=O)(O)OP(=O)(O)OCC3OC(n4cnc5c(N)ncnc54)C(OP(=O)(O)O)C3O)C(O)C2O)c1 (configuration not stated) [NADP] | 13.1
NC(N)=NCCCC(N)C(=O)O (configuration not stated) [Arginine] | 18.4
CC(C)CC(N)C(=O)O (configuration not stated) [Leucine] | 6.22
O=P(O)(O)OCC(O)CO (configuration not stated) [Glycerol-3-phosphate] | 9.92
NC(=O)c1ccc[n+](C2OC(COP(=O)(O)OP(=O)(O)OCC3OC(n4cnc5c(N)ncnc54)C(O)C3O)C(O)C2O)c1 (configuration not stated) [NAD] | 9.49
